Laboratory results reported in patent publication US20050282743A1, “Molecular interactions in cells” (Arbor Vita Corporation, priority 2001, published 2005).
Ends that are not written are not given here. Peptide text beside a SMILES is read from it. * marks the point of attachment. Biotin = O=C1N[C@H]2[C@H](CS[C@H]2CCCCC(=O)*)N1

How the values were obtained:
[1] = test system: PDZ protein (GST-PDZ fusion); test: G' assay (10 uM PL peptide), results of TABLE 7 and TABLE 12; type: binding
Procedure, shortened: (§1)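 Same steps as the G-zero format, apart from a peptide concentration of 10 uM in place of 20 uM in step 2. Amino-terminally biotinylated PL peptides bind GST-PDZ fusions, and retained peptide is quantified by 450 nm absorbance.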

[2] = target: T1, PDZ protein (GST-PDZ fusion) (Homo sapiens, UniProt Q5TCQ9); test: as above; type: binding
T1 construct: made in house; host or cells: E. coli (DH5alpha, BL21 or JM109)
T1 sequence (Q5TCQ9 1-1481): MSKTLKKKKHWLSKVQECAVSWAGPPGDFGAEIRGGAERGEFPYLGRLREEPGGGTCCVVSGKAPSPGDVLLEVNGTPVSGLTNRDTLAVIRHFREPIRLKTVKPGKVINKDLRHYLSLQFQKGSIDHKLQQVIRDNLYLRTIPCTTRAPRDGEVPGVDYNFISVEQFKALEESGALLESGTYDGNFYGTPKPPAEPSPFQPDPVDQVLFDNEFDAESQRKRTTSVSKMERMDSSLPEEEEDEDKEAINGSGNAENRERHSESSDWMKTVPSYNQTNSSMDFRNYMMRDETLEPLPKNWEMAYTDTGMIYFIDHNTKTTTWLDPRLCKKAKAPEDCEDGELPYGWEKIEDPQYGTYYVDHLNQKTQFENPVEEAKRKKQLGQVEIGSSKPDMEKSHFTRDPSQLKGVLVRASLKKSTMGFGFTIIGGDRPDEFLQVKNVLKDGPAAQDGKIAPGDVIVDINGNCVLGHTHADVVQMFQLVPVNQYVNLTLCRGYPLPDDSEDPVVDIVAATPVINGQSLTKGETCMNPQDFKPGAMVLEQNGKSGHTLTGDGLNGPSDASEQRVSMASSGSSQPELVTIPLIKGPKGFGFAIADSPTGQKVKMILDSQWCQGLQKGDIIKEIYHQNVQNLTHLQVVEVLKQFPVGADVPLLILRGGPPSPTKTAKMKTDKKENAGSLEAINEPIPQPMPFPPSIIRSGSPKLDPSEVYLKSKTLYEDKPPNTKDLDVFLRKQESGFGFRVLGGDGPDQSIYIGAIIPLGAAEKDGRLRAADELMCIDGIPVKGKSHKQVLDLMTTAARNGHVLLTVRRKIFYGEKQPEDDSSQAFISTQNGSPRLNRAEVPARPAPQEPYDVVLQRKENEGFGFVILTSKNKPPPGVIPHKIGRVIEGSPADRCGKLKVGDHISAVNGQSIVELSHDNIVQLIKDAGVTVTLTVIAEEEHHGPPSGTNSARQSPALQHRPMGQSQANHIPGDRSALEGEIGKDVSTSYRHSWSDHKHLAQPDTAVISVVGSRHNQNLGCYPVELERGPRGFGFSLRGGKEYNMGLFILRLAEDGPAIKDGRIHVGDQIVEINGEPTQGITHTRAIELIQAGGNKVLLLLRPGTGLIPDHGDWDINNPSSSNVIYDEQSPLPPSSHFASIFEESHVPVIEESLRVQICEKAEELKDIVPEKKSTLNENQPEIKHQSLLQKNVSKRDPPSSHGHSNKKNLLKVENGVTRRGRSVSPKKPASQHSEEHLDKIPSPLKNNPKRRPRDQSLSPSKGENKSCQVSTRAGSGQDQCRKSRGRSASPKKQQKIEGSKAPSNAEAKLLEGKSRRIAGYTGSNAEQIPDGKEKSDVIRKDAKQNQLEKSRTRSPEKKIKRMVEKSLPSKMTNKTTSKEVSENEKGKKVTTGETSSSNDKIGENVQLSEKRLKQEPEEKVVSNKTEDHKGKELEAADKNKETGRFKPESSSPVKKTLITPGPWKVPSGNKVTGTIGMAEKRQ
Procedure, shortened: as §1

[3] = PDZ HEMBA 1003117, PDZ Domain 1

| Molecule | Classification ([1]; PDZ BAI-1, PDZ Domain 2) | Classification ([1]; PDZ BAI-1, PDZ Domain 3) | Classification ([1]; PDZ BAI-1, PDZ Domain 5) | Classification ([1]; PDZ FLJ 00011, PDZ Domain 1) | Classification ([2]; PDZ KIAA1634, PDZ Domain 1) | Classification ([2]; PDZ KIAA1634, PDZ Domain 2) | Classification [1, 3] | Classification ([1]; PDZ BAI-1, PDZ Domain 4) | Classification ([2]; PDZ KIAA1634, PDZ Domain 5) | Classification ([1]; PDZ SHANK, PDZ Domain 1) | Classification ([1]; PDZ BAI-1, PDZ Domain 6) | Classification ([1]; PDZ Connector Enhancer, PDZ Domain 1) | Classification ([1]; PDZ FLJ 11215, PDZ Domain 1) | Classification ([2]; PDZ KIAA1634, PDZ Domain 4) |
| --- | --- | --- | --- | --- | --- | --- | --- | --- | --- | --- | --- | --- | --- | --- |
| CC(C)C[C@H](NC(=O)[C@H](C)NC(=O)[C@H](CO)NC(=O)CNC(=O)[C@@H](NC(=O)CCCC[C@@H]1SC[C@@H]2NC(=O)N[C@@H]21)[C@@H](C)O)C(=O)N[C@@H](CCC(N)=O)C(=O)N[C@@H](C)C(=O)N[C@@H](Cc1c[nH]c2ccccc12)C(=O)N[C@@H](CCCNC(=N)N)C(=O)N[C@@H](Cc1c[nH]cn1)C(=O)N[C@H](C(=O)N[C@@H](CO)C(=O)N[C@@H](CCCNC(=N)N)C(=O)N[C@@H](CCC(N)=O)C(=O)N[C@@H](C)C(=O)N[C@H](C(=O)N[C@@H](CCC(=O)O)C(=O)N[C@@H](CO)C(=O)N[C@H](C(=O)N[C@H](C(=O)O)C(C)C)[C@@H](C)O)[C@@H](C)O)[C@@H](C)O [HPV E6 #66 (modified)] (Biotin-TGSALQAWRHTSRQATESTV-OH; C-terminus assumed) | 5 (A450 nm of 4 more than 2× repeated) | 1 (A450 nm 0-1) | 1 (A450 nm 0-1) | 1 (A450 nm 0-1) | 5 (A450 nm of 4 more than 2× repeated) | 1 (A450 nm 0-1) |  |  |  |  |  |  |  |  |
| SLKPGTVLPPPPYRHRNTVV (Biotin-SLKPGTVLPPPPYRHRNTVV) [ErbB-4 receptor] |  | 1 (A450 nm 0-1) |  |  |  | 1 (A450 nm 0-1) |  |  |  |  |  |  |  |  |
| CC[C@H](C)[C@H](NC(=O)[C@H](CO)NC(=O)[C@@H](NC(=O)[C@H](Cc1ccccc1)NC(=O)[C@H](CO)NC(=O)CCCC[C@@H]1SC[C@@H]2NC(=O)N[C@@H]21)[C@@H](C)O)C(=O)N[C@@H](CC(C)C)C(=O)N[C@H](C(=O)N[C@@H](CS)C(=O)N[C@@H](Cc1c[nH]cn1)C(=O)N[C@@H](CCC(N)=O)C(=O)N[C@@H](CCCNC(=N)N)C(=O)N[C@@H](CCCNC(=N)N)C(=O)N[C@H](C(=O)N[C@@H](CCC(N)=O)C(=O)N[C@@H](CCCNC(=N)N)C(=O)N[C@@H](CCCCN)C(=O)N[C@@H](CCC(=O)O)C(=O)N[C@H](C(=O)N[C@H](C(=O)N[C@@H](C)C(=O)O)C(C)C)[C@@H](C)O)[C@@H](C)O)[C@@H](C)O [GluR5-2 (rat)] | 5 (A450 nm of 4 more than 2× repeated) |  |  |  | 5 (A450 nm of 4 more than 2× repeated) |  |  |  |  |  |  |  |  |  |
| CC(C)C[C@H](NC(=O)[C@H](Cc1c[nH]c2ccccc12)NC(=O)[C@H](Cc1c[nH]cn1)NC(=O)[C@H](CCCNC(=N)N)NC(=O)[C@H](CC(C)C)NC(=O)[C@@H](NC(=O)[C@H](Cc1ccccc1)NC(=O)[C@H](CCC(N)=O)NC(=O)[C@H](CCCNC(=N)N)NC(=O)[C@@H](NC(=O)[C@H](CCC(=O)O)NC(=O)CNC(=O)[C@H](CCCNC(=N)N)NC(=O)[C@H](CC(=O)O)NC(=O)[C@@H](NC(=O)[C@H](CC(C)C)NC(=O)[C@H](CCC(=O)O)NC(=O)[C@H](CCCNC(=N)N)NC(=O)CCCC[C@@H]1SC[C@@H]2NC(=O)N[C@@H]21)C(C)C)C(C)C)[C@@H](C)O)C(=O)N[C@@H](CCCCN)C(=O)N[C@H](C(=O)O)C(C)C [Dopamine transporter (Na+-dependent)] (Biotin-RELVDRGEVRQFTLRHWLKV-OH; C-terminus assumed) |  |  |  |  | 3 (A450 nm 2-3) |  | 5 (A450 nm of 4 more than 2× repeated) |  |  |  |  |  |  |  |
| CC(C)C[C@H](NC(=O)[C@H](CCCNC(=N)N)NC(=O)CNC(=O)CNC(=O)[C@H](CCCNC(=N)N)NC(=O)[C@H](C)NC(=O)[C@@H]1CCCN1C(=O)[C@H](CCCNC(=N)N)NC(=O)CNC(=O)CNC(=O)[C@@H](NC(=O)[C@H](C)NC(=O)CCCC[C@@H]1SC[C@@H]2NC(=O)N[C@@H]21)C(C)C)C(=O)N[C@@H](CCC(N)=O)C(=O)NCC(=O)N[C@@H](CCCNC(=N)N)C(=O)N[C@@H](CCCNC(=N)N)C(=O)N[C@@H](CCC(N)=O)C(=O)N[C@H](C(=O)N[C@@H](CCC(N)=O)C(=O)N[C@H](C(=O)O)C(C)C)[C@@H](C)O [HPV E6 58 (modified)] (Biotin-AVGGRPARGGRLQGRRQTQV-OH; C-terminus assumed) | 5 (A450 nm of 4 more than 2× repeated) | 2 (A450 nm 1-2) | 2 (A450 nm 1-2) |  | 5 (A450 nm of 4 more than 2× repeated) | 1 (A450 nm 0-1) |  | 2 (A450 nm 1-2) | 1 (A450 nm 0-1) |  |  |  |  |  |
| CC[C@H](C)[C@H](NC(=O)[C@H](CCC(N)=O)NC(=O)[C@@H](NC(=O)[C@H](Cc1c[nH]cn1)NC(=O)[C@H](CCC(N)=O)NC(=O)[C@H](CC(=O)O)NC(=O)[C@H](CCC(=O)O)NC(=O)[C@H](CC(=O)O)NC(=O)[C@H](Cc1ccccc1)NC(=O)[C@@H]1CCCN1C(=O)[C@H](CCC(=O)O)NC(=O)[C@H](CC(N)=O)NC(=O)[C@H](CCC(=O)O)NC(=O)[C@@H]1CCCN1C(=O)[C@H](CC(=O)O)NC(=O)[C@H](CO)NC(=O)[C@H](CC(=O)O)NC(=O)CCCC[C@@H]1SC[C@@H]2NC(=O)N[C@@H]21)[C@@H](C)O)C(=O)N[C@H](C(=O)N[C@@H](CCCCN)C(=O)N[C@H](C(=O)O)C(C)C)[C@@H](C)O [PTEN] |  | 2 (A450 nm 1-2) |  | 3 (A450 nm 2-3) |  | 5 (A450 nm of 4 more than 2× repeated) | 1 (A450 nm 0-1) |  |  | 3 (A450 nm 2-3) |  |  |  |  |
| CC[C@H](C)[C@H](NC(=O)[C@H](CCC(N)=O)NC(=O)CCCC[C@@H]1SC[C@@H]2NC(=O)N[C@@H]21)C(=O)N[C@@H](CO)C(=O)N1CCC[C@H]1C(=O)NCC(=O)NCC(=O)N[C@@H](CC(C)C)C(=O)N[C@@H](CCC(=O)O)C(=O)N1CCC[C@H]1C(=O)N1CCC[C@H]1C(=O)N[C@@H](CO)C(=O)N[C@@H](CCC(=O)O)C(=O)N[C@@H](CCCCN)C(=O)N[C@@H](Cc1c[nH]cn1)C(=O)N[C@@H](Cc1ccccc1)C(=O)N[C@@H](CCCNC(=N)N)C(=O)N[C@@H](CCC(=O)O)C(=O)N[C@H](C(=O)N[C@@H](CCC(=O)O)C(=O)N[C@H](C(=O)O)C(C)C)[C@@H](C)O [Tax] | 5 (A450 nm of 4 more than 2× repeated) | 1 (A450 nm 0-1) | 5 (A450 nm of 4 more than 2× repeated) | 1 (A450 nm 0-1) | 5 (A450 nm of 4 more than 2× repeated) | 2 (A450 nm 1-2) |  | 2 (A450 nm 1-2) | 1 (A450 nm 0-1) |  | 1 (A450 nm 0-1) | 1 (A450 nm 0-1) | 1 (A450 nm 0-1) | 2 (A450 nm 1-2) |
